Experimental data from article PMC7144182, “Synthesis, biological evaluation and molecular modelling of 2,4-disubstituted-5-(6-alkylpyridin-2-yl)-1H-imidazoles as ALK5 inhibitors” (Journal of Enzyme Inhibition and Medicinal Chemistry, 2020).
“And” between values parts separate entries of the source, which are not always exact repeats. Equal entries are not always repeated. Marks after values point to notes of the source that are not given here.

Key:
Caco-2 cells = assay: Caco-2 cell permeability assay; type: in vitro ADME; conditions: 100 µM, AP to BL, 2 h; mean ± SD of quadruplicates
Description: Caco-2 cells were seeded in Transwell® polycarbonate filter at a density of 8 × 10^4 cells/filter and cultured for 21 days. Culture medium was removed from both apical (AP) and basolateral (BL) chambers of transwell, and the wells were rinsed three times with PBS. AP buffer (HBSS, pH 6.5) containing 10 mM MES and BL buffer (HBSS, pH 7.4) containing 10 mM HEPES were loaded in AP (500 µL) and BL (1500 µL) chambers, respectively, followed by incubation for 30 min at 37 °C. Then, test compound (100 µM) was added to the AP side and incubated for 2 h at 37 °C. After the incubation, BL buffer was collected and analysed using an UV spectrophotometer at a maximum wavelength (wavelength 225–357 nm).
To estimate oral absorption of target compounds, their permeability in a Caco-2 monolayer was evaluated at a concentration of 100 µM (Table 1).

[1] = target: T1, purified human ALK5 kinase domain (Homo sapiens, UniProt P36897); assay: ALK5 kinase assay (33PanQinase, casein as substrate); type: biochemical; conditions: for IC50: casein substrate, 1 μM ATP, singlicate (11e: mean of triplicates); for fold more potent than the benzo[1,3]dioxol-5-yl analogue: 11a vs 7a, 16a vs 7b; for fold less potent than the corresponding 6-methylpyridyl analogue / fold more inhibiting than the respective methylene linker analogue: vs 11a; for fold less potent than the corresponding 6-methylpyridyl analogue: 11e, 16a, 16e respectively; for fold more inhibiting than the corresponding m-CONH2 analogues 16e and 16f: ethylene linker series; for fold more inhibiting than the respective methylene linker analogue: 11b, 11c, 11g respectively
T1 construct: using the purified human ALK5 kinase domain produced in Sf9 insect cells; host or cells: Sf9 insect cells
T1 sequence (P36897 205-495 limits assumed): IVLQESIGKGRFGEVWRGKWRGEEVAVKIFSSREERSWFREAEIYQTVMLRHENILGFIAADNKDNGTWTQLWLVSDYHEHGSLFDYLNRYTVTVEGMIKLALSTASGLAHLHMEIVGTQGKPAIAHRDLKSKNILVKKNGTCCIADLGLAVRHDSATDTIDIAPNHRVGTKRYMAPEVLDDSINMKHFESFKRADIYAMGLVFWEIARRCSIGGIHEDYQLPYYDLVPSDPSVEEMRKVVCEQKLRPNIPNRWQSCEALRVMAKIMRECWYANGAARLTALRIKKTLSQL
Description: To evaluate whether these potential inhibitors 7a–c, 11a–h, and 16a–h could inhibit ALK5, a kinase assay was performed using the purified human ALK5 kinase domain produced in Sf9 insect cells and casein as a substrate (Table 1).

[2] = system: TGF-β1-induced luciferase reporter activity, HaCaT (3TP-luc) stable cells; assay: Cell-based p3TP-luciferase reporter assay; conditions: for % inhibition in luciferase reporter assay: 0.1 µM inhibitor; for p3TP-luciferase activity (% control): 0.1 μM inhibitor, TGF-β1 2 ng/mL, 24 h, mean ± SD of three independent experiments
Description: To establish HaCaT (3TP-luc) stable cells, cells were seeded on six-well plates. Cells were allowed to adhere overnight and then transfected with the p3TP-luc (neo) expression plasmid using PEI reagent (Sigma Aldrich). Transfected cells were cultured for four weeks in the presence of G418 (500 µg/mL). Several single clones were isolated and measured luciferase activity. The clone showing response to TGF-β1 treatment was used for reporter assay. HaCaT (3TP-luc) stable cells were seeded at 2.5 × 10^4 cells/well in 96-well plate and were allowed to adhere overnight. Cells were concomitantly treated with TGF-β1 (2 ng/mL) and indicated concentrations of ALK5 inhibitors in 0.2% FBS medium and incubated for 24 h at 37 °C in 5% CO2. Cell lysates were prepared using Luciferase Assay System (Promega) according to the manufacturer’s instruction, and luminescence was measured by a luminometer, Micro Lumat Plus (Berthold, Germany).

p38α = p38α (Homo sapiens, UniProt Q16539); assay: p38α kinase assay (33PanQinase, ATF2 as substrate); type: biochemical; conditions: ATF2 substrate; mean of duplicates
Sequence of p38α (Q16539 whole entry): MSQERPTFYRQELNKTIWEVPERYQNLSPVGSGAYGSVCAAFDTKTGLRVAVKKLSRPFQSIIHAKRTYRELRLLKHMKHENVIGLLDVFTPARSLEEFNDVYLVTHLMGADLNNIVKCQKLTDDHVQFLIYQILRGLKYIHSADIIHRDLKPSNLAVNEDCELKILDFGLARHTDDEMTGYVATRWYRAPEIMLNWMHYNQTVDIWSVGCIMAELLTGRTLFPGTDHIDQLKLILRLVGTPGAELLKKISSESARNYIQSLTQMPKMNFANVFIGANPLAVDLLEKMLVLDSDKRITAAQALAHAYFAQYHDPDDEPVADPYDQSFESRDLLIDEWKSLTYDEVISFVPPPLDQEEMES

Row | SMILES | Caco-2 permeability (%) (Caco-2 cells) | IC50 [1] | % inhibition in luciferase reporter assay [2] | p3TP-luciferase activity (% control) [2] | fold higher ALK5 inhibitory activity than 7a ([1]; kinase assay) | fold higher ALK5 inhibitory activity than 7c ([1]; kinase assay) | fold more potent than the benzo[1,3]dioxol-5-yl analogue ([1]; kinase assay) | fold less potent than the corresponding 6-methylpyridyl analogue ([1]; kinase assay) | fold more inhibiting than the corresponding m-CONH2 analogues 16e and 16f [1] | fold more inhibiting than the respective methylene linker analogue [1] | IC50 ([2]; Homo sapiens, HaCaT, read-out: IC50 for p3TP-luciferase) | IC50 (p38α)
1 | Cc1cccc(-c2[nH]c(Cc3ccc(C(N)=O)cc3)nc2-c2ccc3c(c2)OCO3)n1 [Compound 7a, 4-((4-(Benzo[d][1,3]dioxol-5-yl)-5-(6-methylpyridin-2-yl)-1H-imidazol-2-yl)methyl)benzamide] | 35 ± 0.7^f % | 224 nM | 72 % inhibition | 28 ± 7.1 % control |  |  |  |  |  |  |  | 
2 | Cc1cccc(-c2[nH]c(CCc3ccc(C(N)=O)cc3)nc2-c2ccc3c(c2)OCO3)n1 [Compound 7b, 4-(2-(4-(Benzo[d][1,3]dioxol-5-yl)-5-(6-methylpyridin-2-yl)-1H-imidazol-2-yl)ethyl)benzamide] | 23 ± 3.0% | 93 nM | 74 % inhibition | 26 ± 7.9 % control | 2.4 fold | 3.6 fold |  |  |  |  |  | 
3 | Cc1cccc(-c2[nH]c(CCCc3ccc(C(N)=O)cc3)nc2-c2ccc3c(c2)OCO3)n1 [Compound 7c, 4-(3-(4-(Benzo[d][1,3]dioxol-5-yl)-5-(6-methylpyridin-2-yl)-1H-imidazol-2-yl)propyl)benzamide] | 32 ± 1.1% | 338 nM | 40 % inhibition | 60 ± 9.5 % control |  |  |  |  |  |  |  | 
4 | Cc1cccc(-c2[nH]c(Cc3ccc(C(N)=O)cc3)nc2-c2ccc3nccnc3c2)n1 [Compound 11a, 4-((5-(6-Methylpyridin-2-yl)-4-(quinoxalin-6-yl)-1H-imidazol-2-yl)methyl)benzamide] | 25 ± 1.3% | 88 nM | 84 % inhibition | 16 ± 4.5 % control |  |  | 2.5 fold |  |  |  |  | 
5 | CCc1cccc(-c2[nH]c(Cc3ccc(C(N)=O)cc3)nc2-c2ccc3nccnc3c2)n1 [Compound 11b, 4-((5-(6-Ethylpyridin-2-yl)-4-(quinoxalin-6-yl)-1H-imidazol-2-yl)methyl)benzamide] | 26 ± 3.5% | 112 nM |  | 33 ± 21.3 % control |  |  |  | 1.3 fold |  |  |  | 
6 | CC(C)c1cccc(-c2[nH]c(Cc3ccc(C(N)=O)cc3)nc2-c2ccc3nccnc3c2)n1 [Compound 11c, 4-((5-(6-Isopropylpyridin-2-yl)-4-(quinoxalin-6-yl)-1H-imidazol-2-yl)methyl)benzamide] | 30 ± 9.0% | 2190 nM |  | 39 ± 11.4 % control |  |  |  | 13–35 fold |  |  |  | 
7 | CCCCc1cccc(-c2[nH]c(Cc3ccc(C(N)=O)cc3)nc2-c2ccc3nccnc3c2)n1 [Compound 11d, 4-((5-(6-n-Butylpyridin-2-yl)-4-(quinoxalin-6-yl)-1H-imidazol-2-yl)methyl)benzamide] | 41 ± 5.3% | 2700 nM |  | 85 ± 32.5 % control |  |  |  |  |  |  |  | 
8 | CCc1cccc(-c2[nH]c(Cc3cccc(C(N)=O)c3)nc2-c2ccc3nccnc3c2)n1 [Compound 11f, 3-((5-(6-Ethylpyridin-2-yl)-4-(quinoxalin-6-yl)-1H-imidazol-2-yl)methyl)benzamide] | 38 ± 13.8% | 75 nM |  | 17 ± 3.7 % control |  |  |  | 2.1 fold |  |  |  | 
9 | CC(C)c1cccc(-c2[nH]c(Cc3cccc(C(N)=O)c3)nc2-c2ccc3nccnc3c2)n1 [Compound 11g, 3-((5-(6-Isopropylpyridin-2-yl)-4-(quinoxalin-6-yl)-1H-imidazol-2-yl)methyl)benzamide] | 34 ± 15.6% | 1250 nM |  | 69 ± 6.7 % control |  |  |  | 13–35 fold |  |  |  | 
10 | CCCCc1cccc(-c2[nH]c(Cc3cccc(C(N)=O)c3)nc2-c2ccc3nccnc3c2)n1 [Compound 11h, 3-((5-(6-n-Butylpyridin-2-yl)-4-(quinoxalin-6-yl)-1H-imidazol-2-yl)methyl)benzamide] |  | 1040 nM |  | 83 ± 21.1 % control |  |  |  |  |  |  |  | 
11 | Cc1cccc(-c2[nH]c(CCc3ccc(C(N)=O)cc3)nc2-c2ccc3nccnc3c2)n1 [Compound 16a, 4-(2-(5-(6-Methylpyridin-2-yl)-4-(quinoxalin-6-yl)-1H-imidazol-2-yl)ethyl)benzamide] | 45 ± 5.3% | 30 nM | 85 % inhibition | 15 ± 8.2 % control |  |  | 3.1 fold |  | 1.6 fold | 2.9 fold |  | 
12 | CCc1cccc(-c2[nH]c(CCc3ccc(C(N)=O)cc3)nc2-c2ccc3nccnc3c2)n1 [Compound 16b, 4-(2-(5-(6-Ethylpyridin-2-yl)-4-(quinoxalin-6-yl)-1H-imidazol-2-yl)ethyl)benzamide] | 25 ± 3.7% | 41 nM | 84 % inhibition | 16 ± 8.4 % control |  |  |  | 1.4 fold | 1.6 fold | 2.7 fold |  | 
13 | CC(C)c1cccc(-c2[nH]c(CCc3ccc(C(N)=O)cc3)nc2-c2ccc3nccnc3c2)n1 [Compound 16c, 4-(2-(5-(6-Isopropylpyridin-2-yl)-4-(quinoxalin-6-yl)-1H-imidazol-2-yl)ethyl)benzamide] | 23 ± 3.1% | 653 nM |  | 85 ± 38.9 % control |  |  |  | 13–35 fold |  | 3.4 fold |  | 
14 | CCCCc1cccc(-c2[nH]c(CCc3ccc(C(N)=O)cc3)nc2-c2ccc3nccnc3c2)n1 [Compound 16d, 4-(2-(5-(6-n-Butylpyridin-2-yl)-4-(quinoxalin-6-yl)-1H-imidazol-2-yl)ethyl)benzamide] | 24 ± 1.9% | 2380 nM |  | 76 ± 5.7 % control |  |  |  |  |  |  |  | 
15 | Cc1cccc(-c2[nH]c(CCc3cccc(C(N)=O)c3)nc2-c2ccc3nccnc3c2)n1 [Compound 16e, 3-(2-(5-(6-Methylpyridin-2-yl)-4-(quinoxalin-6-yl)-1H-imidazol-2-yl)ethyl)benzamide] | 21 ± 9.5% | 47 nM | 93 % inhibition | 7 ± 0.7 % control |  |  |  |  |  |  |  | 
16 | CCc1cccc(-c2[nH]c(CCc3cccc(C(N)=O)c3)nc2-c2ccc3nccnc3c2)n1 [Compound 16f, 3-(2-(5-(6-Ethylpyridin-2-yl)-4-(quinoxalin-6-yl)-1H-imidazol-2-yl)ethyl)benzamide] | 6% and 6 ± 4.1% | 66 nM |  | 56 ± 14.6 % control |  |  |  | 1.4 fold |  |  |  | 
17 | CC(C)c1cccc(-c2[nH]c(CCc3cccc(C(N)=O)c3)nc2-c2ccc3nccnc3c2)n1 [Compound 16g, 3-(2-(5-(6-Isopropylpyridin-2-yl)-4-(quinoxalin-6-yl)-1H-imidazol-2-yl)ethyl)benzamide] | 0% | 593 nM |  | 48 ± 41.8 % control |  |  |  | 13–35 fold |  | 2.1 fold |  | 
18 | CCCCc1cccc(-c2[nH]c(CCc3cccc(C(N)=O)c3)nc2-c2ccc3nccnc3c2)n1 [Compound 16h, 3-(2-(5-(6-n-Butylpyridin-2-yl)-4-(quinoxalin-6-yl)-1H-imidazol-2-yl)ethyl)benzamide] | 0% | 2880 nM |  | 92 ± 10.4 % control |  |  |  |  |  |  |  | 
19 | Cc1cccc(-c2nn3c(c2-c2ccnc4ccc(C(N)=O)cc24)CCC3)n1 [Galunisertib (1), reference compound] |  |  |  |  |  |  |  |  |  |  | > 100 nM | 320 nM
